Test results taken from PubChem BioAssay AID248 (DTP/NCI, 2004).
“And” between values parts separate entries of the source, which are not always exact repeats. Equal values may be shown once. Inconclusive results and toxic doses are left out. Cut-off read from the data, not from the text of the source: active = T/C of 150% or more; inactive = T/C below 125%.

Tested on: L1210 leukemia ip in BDF1 mice, survival T/C
Test: NCI In Vivo Anticancer Drug Screen. Data for tumor model L1210 Leukemia (intraperitoneal) in B6D2F1 (BDF1) mice
Conditions: endpoint: mean survival time, higher = longer survival
How it was run: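 Read-out is survival time, reported as the treated-group measurement over the vehicle-control measurement.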

[1] = dose: 100.0 mg/kg/injection, schedule: Q01DX009 (ip), vehicle: saline with Tween-80
[2] = dose: 200.0 mg/kg/injection, schedule: Q01DX009 (ip), vehicle: saline with Tween-80
[3] = dose: 100.0 mg/kg/injection, schedule: Q04DX003 (ip), vehicle: saline
[4] = dose: 200.0 mg/kg/injection, schedule: Q04DX003 (ip), vehicle: saline
[5] = dose: 400.0 mg/kg/injection, schedule: Q04DX003 (ip), vehicle: saline
[6] = dose: 100.0 mg/kg/injection, schedule: Q04DX003 (ip), vehicle: Klucel (hydroxypropylcellulose) (HPC)
[7] = dose: 200.0 mg/kg/injection, schedule: Q04DX003 (ip), vehicle: Klucel (hydroxypropylcellulose) (HPC)
[8] = dose: 100.0 mg/kg/injection, schedule: Q04DX002 (ip), vehicle: saline
[9] = dose: 200.0 mg/kg/injection, schedule: Q04DX002 (ip), vehicle: saline
[10] = dose: 100.0 mg/kg/injection, schedule: Q01DX009 (ip), vehicle: Klucel (hydroxypropylcellulose) (HPC)
[11] = dose: 200.0 mg/kg/injection, schedule: Q01DX009 (ip), vehicle: Klucel (hydroxypropylcellulose) (HPC)
[12] = dose: 400.0 mg/kg/injection, schedule: Q01DX009 (ip), vehicle: Klucel (hydroxypropylcellulose) (HPC)
[13] = dose: 400.0 mg/kg/injection, schedule: Q04DX003 (ip), vehicle: Klucel (hydroxypropylcellulose) (HPC)

Measured: T/C

COc1cccc(/C=N\NC(=O)C(C)SC(C)C(=O)N/N=C/c2cccc(OC)c2)c1 (centres undefined)
inactive: dose: 100.0 mg/kg/injection, schedule: Q01DX009 (ip), vehicle: other 91 % of control | dose: 100.0 mg/kg/injection, schedule: Q04DX003 (ip), vehicle: other 89 % of control | dose: 200.0 mg/kg/injection, schedule: Q01DX009 (ip), vehicle: other 94 % of control | dose: 200.0 mg/kg/injection, schedule: Q04DX003 (ip), vehicle: other 89 % of control | dose: 400.0 mg/kg/injection, schedule: Q01DX009 (ip), vehicle: other 94 % of control | dose: 400.0 mg/kg/injection, schedule: Q04DX003 (ip), vehicle: other 96 % of control

Cc1ccc(C(CC(=O)NN)NN)c(O)c1 (centres undefined)
inactive: dose: 50.0 mg/kg/injection, schedule: Q01DX009 (ip), vehicle: saline with Tween-80 104 % of control | [1] 101 % of control | [2] 108 % of control

Cc1cccc(Cl)c1OCC(N)=O
inactive: dose: 100.0 mg/kg/injection, schedule: Q04DX002 (ip), vehicle: saline with Tween-80 111 % of control | dose: 200.0 mg/kg/injection, schedule: Q04DX002 (ip), vehicle: saline with Tween-80 103 % of control | dose: 400.0 mg/kg/injection, schedule: Q04DX002 (ip), vehicle: saline with Tween-80 111 % of control

Cc1ccc(CC(C)(O)CC(C)(O)Cc2ccc(C)cc2)cc1 (centres undefined)
inactive: [3] 100 % of control | [4] 93 % of control | [5] 93 % of control

CCOC(=O)c1cn(C2OC(COC(=O)c3ccccc3)C(OC(=O)c3ccccc3)C2OC(=O)c2ccccc2)c(=O)nc1Nc1ccccc1Br (centres undefined)
inactive: dose: 100.0 mg/kg/injection, schedule: Q01DX005 (ip), vehicle: saline 97 % of control | dose: 200.0 mg/kg/injection, schedule: Q01DX005 (ip), vehicle: saline 97 % of control

Cc1ccc(C(=O)C2CC2)c(C)c1
inactive: [1] 105 % of control | dose: 100.0 mg/kg/injection, schedule: Q04DX003 (ip), vehicle: saline with Tween-80 96 % of control | [2] 98 % of control | dose: 200.0 mg/kg/injection, schedule: Q04DX003 (ip), vehicle: saline with Tween-80 95 % of control | dose: 400.0 mg/kg/injection, schedule: Q01DX009 (ip), vehicle: saline with Tween-80 109 % of control | dose: 400.0 mg/kg/injection, schedule: Q04DX003 (ip), vehicle: saline with Tween-80 93 % of control

O=C(Cc1cccc([N+](=O)[O-])c1)Nc1ccc(S(=O)(=O)F)cc1
inactive: dose: 100.0 mg/kg/injection, schedule: Q01DX001 (ip), vehicle: saline 112 % of control | dose: 200.0 mg/kg/injection, schedule: Q01DX001 (ip), vehicle: saline 111 % of control | dose: 400.0 mg/kg/injection, schedule: Q01DX001 (ip), vehicle: saline 110 % of control

CCC(O)CN (centres undefined)
inactive: [3] 96 % of control and 107 % of control | [4] 96 % of control | [5] 95 % of control

CNCCC(=O)c1ccccc1
inactive: [6] 99 % of control | [7] 99 % of control

Cc1ncc(CO)c(COCCC(C)C)c1O
inactive: [8] 95 % of control | [9] 98 % of control

CC(C)(CCCl)N(Cc1ccccc1)Cc1ccccc1
inactive: dose: 100.0 mg/kg/injection, schedule: Q01DX009 (ip), vehicle: saline 93 % of control | [3] 99 % of control | dose: 200.0 mg/kg/injection, schedule: Q01DX009 (ip), vehicle: saline 90 % of control | [4] 95 % of control | [5] 89 % of control

CCc1c([N+](=O)[O-])oc2ccc(Cl)cc12
inactive: [10] 103 % of control | [11] 105 % of control | [12] 107 % of control

Cc1ccc(C(O)c2cnc(C)n2Cc2ccccc2)cc1 (centres undefined)
inactive: dose: 100.0 mg/kg/injection, schedule: Q01DX009 (ip), vehicle: carboxymethylcellulose (CMC) 96 % of control | dose: 100.0 mg/kg/injection, schedule: Q04DX002 (ip), vehicle: Klucel (hydroxypropylcellulose) (HPC) 94 % of control | dose: 100.0 mg/kg/injection, schedule: Q04DX002 (ip), vehicle: carboxymethylcellulose (CMC) 94 % of control and 112 % of control | dose: 100.0 mg/kg/injection, schedule: Q04DX003 (ip), vehicle: carboxymethylcellulose (CMC) 107 % of control | dose: 200.0 mg/kg/injection, schedule: Q01DX009 (ip), vehicle: carboxymethylcellulose (CMC) 100 % of control and 107 % of control | dose: 200.0 mg/kg/injection, schedule: Q04DX002 (ip), vehicle: Klucel (hydroxypropylcellulose) (HPC) 109 % of control | dose: 200.0 mg/kg/injection, schedule: Q04DX002 (ip), vehicle: carboxymethylcellulose (CMC) 94 % of control and 98 % of control | dose: 200.0 mg/kg/injection, schedule: Q04DX003 (ip), vehicle: carboxymethylcellulose (CMC) 92 % of control | dose: 400.0 mg/kg/injection, schedule: Q01DX009 (ip), vehicle: carboxymethylcellulose (CMC) 96 % of control and 86 % of control | dose: 400.0 mg/kg/injection, schedule: Q04DX002 (ip), vehicle: Klucel (hydroxypropylcellulose) (HPC) 88 % of control | dose: 400.0 mg/kg/injection, schedule: Q04DX002 (ip), vehicle: carboxymethylcellulose (CMC) 94 % of control and 95 % of control | dose: 400.0 mg/kg/injection, schedule: Q04DX003 (ip), vehicle: carboxymethylcellulose (CMC) 96 % of control

CC(=O)C1=C(O)C(c2ccccc2)c2ccccc21 (centres undefined)
inactive: dose: 100.0 mg/kg/injection, schedule: Q01DX001 (ip), vehicle: Klucel (hydroxypropylcellulose) (HPC) 108 % of control | [6] 100 % of control | dose: 200.0 mg/kg/injection, schedule: Q01DX001 (ip), vehicle: Klucel (hydroxypropylcellulose) (HPC) 103 % of control | [7] 103 % of control | dose: 400.0 mg/kg/injection, schedule: Q01DX001 (ip), vehicle: Klucel (hydroxypropylcellulose) (HPC) 100 % of control | [13] 95 % of control

Cc1ccc2c(c1)-c1[nH]c3ccccc3c1CS2
inactive: dose: 100.0 mg/kg/injection, schedule: Q04DX003 (ip), vehicle: acetone 105 % of control | dose: 200.0 mg/kg/injection, schedule: Q04DX003 (ip), vehicle: acetone 110 % of control

O=c1cc(Nc2cccc(-c3ccccc3)c2)[nH]c(=O)[nH]1
inactive: dose: 87.5 mg/kg/injection, schedule: Q01DX001 (ip), vehicle: gum acacia 90 % of control | dose: 175.0 mg/kg/injection, schedule: Q01DX001 (ip), vehicle: gum acacia 102 % of control | dose: 350.0 mg/kg/injection, schedule: Q01DX001 (ip), vehicle: gum acacia 95 % of control

Nc1nc(N)nc(-c2ccccc2NC(=O)c2ccccc2[N+](=O)[O-])n1
inactive: [10] 91 % of control | [6] 101 % of control | [11] 96 % of control | [7] 105 % of control | [12] 90 % of control | [13] 100 % of control

CCC(CS(=O)(=O)O)[N+](=O)[O-] (centres undefined)
inactive: [8] 96 % of control | [9] 96 % of control | dose: 400.0 mg/kg/injection, schedule: Q04DX002 (ip), vehicle: saline 107 % of control

CCC(=O)NC
inactive: dose: 100.0 mg/kg/injection, schedule: Q01DX001 (ip), vehicle: acetone 100 % of control | dose: 100.0 mg/kg/injection, schedule: Q01DX009 (ip), vehicle: acetone 101 % of control | dose: 200.0 mg/kg/injection, schedule: Q01DX001 (ip), vehicle: acetone 100 % of control | dose: 200.0 mg/kg/injection, schedule: Q01DX009 (ip), vehicle: acetone 97 % of control | dose: 400.0 mg/kg/injection, schedule: Q01DX001 (ip), vehicle: acetone 100 % of control | dose: 400.0 mg/kg/injection, schedule: Q01DX009 (ip), vehicle: acetone 100 % of control | dose: 555.0 mg/kg/injection, schedule: Q01DX015 (ip), vehicle: water 102 % of control | dose: 833.0 mg/kg/injection, schedule: Q01DX015 (ip), vehicle: water 115 % of control | dose: 1000.0 mg/kg/injection, schedule: Q01DX001 (ip), vehicle: water 98 % of control | dose: 1500.0 mg/kg/injection, schedule: Q01DX001 (ip), vehicle: water 104 % of control | dose: 2000.0 mg/kg/injection, schedule: Q01DX001 (ip), vehicle: water 113 % of control
